Among the data in US20250326732A1 (Pretzel Therapeutics, Inc., priority 2021, published 2025) are IC50 values, retold here.

In the test the target is POLRMT (Homo sapiens (Human), UniProt O00411). Nature of the test: homogeneous TR-FRET assay of mitochondrial transcription (inhibition of POLRMT). The class given is biochemical. The following applies: 7.5 nM POLRMT, 15 nM TFB2M, 30 nM TFAM, 0.5 nM DNA template, 500 μM NTPs, 37° C. for 60 minutes. An outline of the steps:
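POLRMT transcription from linearized pUC-LSP DNA template; RNA product detected by hybridization of ATTO647 acceptor (1 nM) and biotinylated donor (3 nM) probes plus Europium-streptavidin. Reaction stopped with EDTA/700 mM NaCl buffer, pH 7.5.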
For orientation: Time-resolved FRET reads energy transfer from a long-lived donor to a nearby acceptor.

The IC50 is the concentration at which inhibition is half-maximal. High values mean lower potency, low ones higher potency.

Chain of POLRMT (O00411 42-1230): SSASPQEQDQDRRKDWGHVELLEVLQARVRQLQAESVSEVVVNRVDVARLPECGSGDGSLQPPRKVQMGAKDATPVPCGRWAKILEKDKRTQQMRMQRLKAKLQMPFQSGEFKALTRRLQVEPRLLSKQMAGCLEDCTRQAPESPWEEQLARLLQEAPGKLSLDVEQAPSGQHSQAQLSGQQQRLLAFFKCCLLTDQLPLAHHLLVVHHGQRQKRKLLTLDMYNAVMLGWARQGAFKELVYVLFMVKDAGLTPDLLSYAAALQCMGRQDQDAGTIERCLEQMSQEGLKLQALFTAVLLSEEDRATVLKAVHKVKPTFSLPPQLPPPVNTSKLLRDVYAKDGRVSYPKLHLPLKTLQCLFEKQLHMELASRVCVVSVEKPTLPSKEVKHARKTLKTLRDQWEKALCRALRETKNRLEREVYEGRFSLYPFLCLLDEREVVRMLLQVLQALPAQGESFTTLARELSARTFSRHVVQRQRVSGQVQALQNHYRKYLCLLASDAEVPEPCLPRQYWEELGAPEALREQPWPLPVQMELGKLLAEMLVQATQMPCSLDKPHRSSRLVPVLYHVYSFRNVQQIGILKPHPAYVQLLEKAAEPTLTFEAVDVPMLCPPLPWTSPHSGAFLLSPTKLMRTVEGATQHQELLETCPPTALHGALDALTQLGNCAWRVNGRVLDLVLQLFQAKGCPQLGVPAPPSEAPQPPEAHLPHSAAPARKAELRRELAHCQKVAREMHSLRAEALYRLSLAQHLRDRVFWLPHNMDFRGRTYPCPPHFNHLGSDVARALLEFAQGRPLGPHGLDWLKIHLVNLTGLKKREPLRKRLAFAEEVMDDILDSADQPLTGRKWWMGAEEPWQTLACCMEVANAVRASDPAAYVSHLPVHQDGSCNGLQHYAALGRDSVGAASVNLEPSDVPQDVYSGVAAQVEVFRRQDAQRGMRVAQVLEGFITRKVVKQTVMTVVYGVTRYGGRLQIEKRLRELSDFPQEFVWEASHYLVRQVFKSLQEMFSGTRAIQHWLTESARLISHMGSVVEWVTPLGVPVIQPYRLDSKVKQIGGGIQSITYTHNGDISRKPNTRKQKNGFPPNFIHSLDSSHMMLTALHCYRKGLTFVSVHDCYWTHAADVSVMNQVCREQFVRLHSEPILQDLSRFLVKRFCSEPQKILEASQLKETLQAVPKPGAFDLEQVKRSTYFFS

`Cc1ccccc1-c1cc(=O)oc2cc(C(=O)N(C)C3CCOCC3)ccc12` [Example 111, N-methyl-2-oxo-N-(tetrahydro-2H-pyran-4-yl)-4-(o-tolyl)-2H-chromene-7-carboxamide] registered a half-maximal inhibitory concentration (IC50) of 64000 nM. The result for `Cc1ccccc1-c1cc(=O)oc2cc(C(=O)N(C)CC(N)=O)ccc12` [Example 112, N-(2-amino-2-oxoethyl)-N-methyl-2-oxo-4-(o-tolyl)-2H-chromene-7-carboxamide] reads 27000 nM; that for `Cc1ccccc1-c1cc(=O)oc2cc(C(=O)NCC(N)=O)ccc12` [Example 113, N-(2-amino-2-oxoethyl)-2-oxo-4-(o-tolyl)-2H-chromene-7-carboxamide], 12000 nM; that for `Cc1ccccc1-c1cc(=O)oc2cc(C(=O)N(C)Cc3nccn3C)ccc12` [Example 114, N-methyl-N-((1-methyl-1H-imidazol-2-yl)methyl)-2-oxo-4-(o-tolyl)-2H-chromene-7-carboxamide], 36000 nM. `COCC1CN(C(=O)c2ccc3c(-c4ccccc4C)cc(=O)oc3c2)C1` [Example 115, 7-(3-(methoxymethyl)azetidine-1-carbonyl)-4-(o-tolyl)-2H-chromen-2-one] gave an IC50 of 18000 nM. Then `COC[C@@H]1CCN(C(=O)c2ccc3c(-c4ccccc4C)cc(=O)oc3c2)C1` [Example 116, (R)-7-(3-(methoxymethyl)pyrrolidine-1-carbonyl)-4-(o-tolyl)-2H-chromen-2-one], with 45000 nM; and `Cc1ccccc1-c1cc(=O)oc2cc(C(=O)N(C)C3CCCOC3)ccc12` (stereo not drawn) [Example 117, N-methyl-2-oxo-N-(tetrahydro-2H-pyran-3-yl)-4-(o-tolyl)-2H-chromene-7-carboxamide], with 65000 nM; and `Cc1ccccc1-c1cc(=O)oc2cc(C(=O)N3CC(CO)C3)ccc12` [Example 118, 7-(3-(hydroxymethyl)azetidine-1-carbonyl)-4-(o-tolyl)-2H-chromen-2-one], with 15000 nM. Then `Cc1ccccc1-c1cc(=O)oc2cc(NCc3ccn(C)n3)ccc12` [Example 119, 7-(((1-methyl-1H-pyrazol-3-yl)methyl)amino)-4-(o-tolyl)-2H-chromen-2-one], with 2000 nM.

In the case of `Cc1ccccc1-c1cc(=O)oc2cc(C(=O)NCc3nccn3C)ccc12` [Example 122, N-((1-methyl-1H-imidazol-2-yl)methyl)-2-oxo-4-(o-tolyl)-2H-chromene-7-carboxamide], half-maximal inhibition (IC50) required 5000 nM. The result for `COC[C@H]1CCN(C(=O)c2ccc3c(-c4ccccc4C)cc(=O)oc3c2)C1` [Example 123, (S)-7-(3-(methoxymethyl)pyrrolidine-1-carbonyl)-4-(o-tolyl)-2H-chromen-2-one] reads 16000 nM; that for `Cc1ccccc1-c1cc(=O)oc2cc(C(=O)N3CC(C)(CO)C3)ccc12` [Example 124, 7-(3-(hydroxymethyl)-3-methylazetidine-1-carbonyl)-4-(o-tolyl)-2H-chromen-2-one], 3000 nM. As to `Cc1ccccc1-c1cc(=O)oc2cc(N(C)Cc3ccn(C)n3)ccc12` [Example 125, 7-(methyl((1-methyl-1H-pyrazol-3-yl)methyl)amino)-4-(o-tolyl)-2H-chromen-2-one], the IC50 is 100 nM.

`Cc1ccccc1-c1cc(=O)oc2cc(N(C)Cc3ccccc3)ccc12` [Example 126, 7-[benzyl(methyl)amino]-4-(o-tolyl) chromen-2-one] came in with an IC50 of 50 nM. Then `Cc1ccccc1-c1cc(=O)oc2cc(NCC(C)(C)C(=O)O)ccc12` [Example 127, 2,2-dimethyl-3-((2-oxo-4-(o-tolyl)-2H-chromen-7-yl)amino)propanoic acid], with 200 nM; and `Cc1ccccc1-c1cc(=O)oc2cc(N(C)CC(C)(C)C(=O)O)ccc12` [Example 128, 2,2-dimethyl-3-(methyl(2-oxo-4-(o-tolyl)-2H-chromen-7-yl)amino)propanoic acid], with 30 nM; and `O=C(O)CCNc1ccc2c(-c3ccc(F)cc3Cl)cc(=O)oc2c1` [Example 129, 3-((4-(2-chloro-4-fluorophenyl)-2-oxo-2H-chromen-7-yl)amino)propanoic acid], with 7000 nM.

Consider `CN(CCC(=O)O)c1ccc2c(-c3ccc(F)cc3Cl)cc(=O)oc2c1` [Example 130, 3-((4-(2-chloro-4-fluorophenyl)-2-oxo-2H-chromen-7-yl)(methyl)amino)propanoic acid], for which inhibition was half-maximal at 400 nM (IC50).

With `O=C(O)CCNc1ccc2c(-c3ccccc3Cl)cc(=O)oc2c1` [Example 131, 3-((4-(2-chlorophenyl)-2-oxo-2H-chromen-7-yl)amino)propanoic acid], the IC50 worked out at 8000 nM. Regarding `CN(CCC(=O)O)c1ccc2c(-c3ccccc3Cl)cc(=O)oc2c1` [Example 132, 3-((4-(2-chlorophenyl)-2-oxo-2H-chromen-7-yl)(methyl)amino)propanoic acid], 1000 nM corresponded to half-maximal inhibition (IC50). The result for `Cc1ccccc1-c1cc(=O)oc2cc(N(C)CCC(N)=O)ccc12` [Example 133, 3-(methyl(2-oxo-4-(o-tolyl)-2H-chromen-7-yl)amino)propanamide] reads 700 nM. The compound `Cc1ccccc1-c1cc(=O)oc2cc(N(C)CC(=O)NCC(N)=O)ccc12` [Example 134, N-(2-amino-2-oxoethyl)-2-(methyl(2-oxo-4-(o-tolyl)-2H-chromen-7-yl)amino)acetamide] returned an IC50 of 200 nM. With `CNC(=O)C1CC1c1ccc2c(-c3ccccc3C)cc(=O)oc2c1` (stereo not drawn) [Example 135, chiral-N-methyl-2-(2-oxo-4-(o-tolyl)-2H-chromen-7-yl)cyclopropane-1-carboxamide], it took 9000 nM to reach half-maximal inhibition (IC50).

Take `CNC(=O)C1CC1c1ccc2c(-c3ccccc3C)cc(=O)oc2c1` (stereo not drawn) [Example 136, chiral-N-methyl-2-(2-oxo-4-(o-tolyl)-2H-chromen-7-yl)cyclopropane-1-carboxamide]: half-maximal inhibition (IC50) required 200 nM. `CN(CCC(N)=O)c1ccc2c(-c3ccc(F)cc3Cl)cc(=O)oc2c1` [Example 137, 3-((4-(2-chloro-4-fluorophenyl)-2-oxo-2H-chromen-7-yl)(methyl)amino)propanamide] gave a concentration for half-maximal inhibition (IC50) of 900 nM. Then `CNC(=O)CCN(C)c1ccc2c(-c3ccc(F)cc3Cl)cc(=O)oc2c1` [Example 138, 3-((4-(2-chloro-4-fluorophenyl)-2-oxo-2H-chromen-7-yl)(methyl)amino)-N-methylpropanamide], with 2000 nM; and `Cc1ccccc1-c1cc(=O)oc2cc(N(C)CC(=O)NC3CCOCC3)ccc12` [Example 139, 2-(methyl(2-oxo-4-(o-tolyl)-2H-chromen-7-yl)amino)-N-(tetrahydro-2H-pyran-4-yl)acetamide], with 100 nM. `CNC(=O)CCN(C)c1ccc2c(-c3ccccc3C)cc(=O)oc2c1` [Example 140, N-methyl-3-(methyl(2-oxo-4-(o-tolyl)-2H-chromen-7-yl)amino)propanamide]: 900 nM corresponded to half-maximal inhibition (IC50). Then `Cc1ccccc1-c1cc(=O)oc2cc(N(C)CC(=O)OC(C)C)ccc12` [Example 141, isopropyl N-methyl-N-(2-oxo-4-(o-tolyl)-2H-chromen-7-yl)glycinate], with 20 nM; and `CCOC(=O)CN(C)c1ccc2c(-c3ccccc3C)cc(=O)oc2c1` [Example 142, ethyl N-methyl-N-(2-oxo-4-(o-tolyl)-2H-chromen-7-yl)glycinate], with 20 nM.
